Results on four compounds are retold here after patent US11344635B2, “Compounds for use as iron (III) MRI contrast agents containing anionic pendents and ancillary groups” (The Research Foundation for The State University of New York, priority 2018, dated 2022).

The conditions of data set [1]: versus NHE; cited from earlier work.
A short description of data set [2]: Benzoate oxidation in the presence of peroxide and ascorbate (ROS assay). Particulars: 50 μM complex, 50 μM H2O2, 50 μM ascorbate, pH 7.2. The procedure: Benzoate oxidation with 50 μM complex, 50 μM H2O2 and 50 μM ascorbate at pH 7.2. [Fe(EDTA)]^− oxidation is set at 100%.
It is desirable that the Fe(III) complex remain in the trivalent oxidation state and not be reduced by peroxide, superoxide, ascorbate or by glutathione at concentrations present in the extracellular medium of cells such as, for example, mammalian cells (e.g., human cells). Normally, a redox potential more negative than zero mV (<0 mV) versus NHE is sufficient. If the complex were to be reduced to Fe(II) and the Fe(II) complex and the complex has a positive redox potential versus NHE, reactive oxygen species may be produced. For example, [Fe(EDTA)]− has a redox potential of approximately 300 mV and produces ROS as shown by the assay in FIG. 7.

Data set [3] is described as follows: Phantom (in vitro) MR imaging: T1 and T2 relaxivity. It is filed as physicochemical. To be noted: for r1 / r1 with HSA: 37° C. The procedure:
Preparation of Samples for Phantom MR Imaging: Samples for phantom imaging experiments contained 50-500 μM complex, 20 mM HEPES and 100 mM NaCl. For samples containing Human Serum Albumin (HSA), 35 mg of HSA was added to these solutions. The pH of all solutions was adjusted to 7.0.
Phantom (in vitro) imaging at 4.7 T. MRI acquisitions were performed using a General Electric 4.7 T/33 cm horizontal bore magnet (GE NMR instruments, Fremont, Calif.) incorporating AVANCE digital electronics (Bruker BioSpec platform with ParaVision v 3.0.2 acquisition software, Bruker Medical, Billerica, Mass.). […] T1 relaxation rates (r1) were acquired utilizing a saturation recovery, spin-echo (SE) sequence with a fixed echo time (TE), 10 ms and repetition times (TR) ranging from 75 to 8000 ms. Signal intensities at each repetition time were sampled by taking the mean intensity within regions of interest (ROI's) using commercially available image processing software (Analyze 7.0, AnalyzeDirect, Overland, Kans.), and r1 and SMAX were calculated by nonlinear fitting of the equation using Matlab's Curve Fitting Toolbox (Matlab 7.0, MathWorks Inc., Natick, Mass.). The T1 relaxivity for each complex was then determined by obtaining the slope of the compound's molar concentration vs r1 via linear regression fitting of the data. Similarly, T2 relaxation rates (R2) were acquired using a multiecho, Carr-Purcell-Meiboom Gill (CPMG) SE sequence with a fixed TR of 2500 ms and TE times ranging from 15 to 300 ms, NEX) 2. R2 and SMAX were calculated as described above using the equation As before, the T2 relaxivity was determined by obtaining the slope of concentration vs r2 via linear regression fitting of the data.
Relaxivity values for Fe(TASO) with and without HSA measured at 4.7 T and 9.4 T, pH 7.2 and 37° C. compared to Gd(DTPA).

Data set [4] in a line: Log P octanol/water partition coefficient. It is filed as physicochemical.
Data set [5] can be described thus: Effective magnetic moment by Evans method. It is filed as physicochemical. To be noted: aqueous solution. The procedure: Magnetic moments. Samples for studies of magnetic moment by using the Evans method were prepared using a coaxial NMR insert which contained the diamagnetic standard of 5% t-butanol in D2O. The outer 5 mm NMR tube contained 5 mM paramagnetic complex with fixed concentrations; 4 mM, 8 mM, 40 mM, and 70 mM in presence of 5% t-butanol. The effective magnetic moment (μeff, BM) was calculated by using a modified Evans method for small molecules at 298 K (T).

[6] abbreviates: neutral pH, HEPES buffer, 4.7 Tesla MRI scanner.
The mark [7] stands for this setting: with human serum albumin, neutral pH, HEPES buffer, 4.7 Tesla.
The mark [8] stands for this setting: 4.7 T, pH 7.2, 37° C., without HSA.

SMILES strings stand for the structures.

Take `O=C([O-])CN(CCN(CC(=O)[O-])CC(=O)[O-])CC(=O)[O-].[Fe+3]` [[Fe(EDTA)]^−]: the redox potential result in data set [1] was “approximately 300 mV”. Also, in data set [2], the “Benzoate oxidation / ROS production (in words)” value is given as “produces ROS”. In addition, in data set [2] (reference set at 100%), the “Benzoate oxidation relative to [Fe(EDTA)]−” value is reported as 100%.
For the compound `O=P([O-])(CN1CCN(CP(=O)([O-])c2ccccc2)CCN(CP(=O)([O-])c2ccccc2)CC1)c1ccccc1.[Fe+3]` [Fe(TRAP-Ph)], the r1 in data set [3] (setting [6]) was determined as 2.9 mM⁻¹ s⁻¹. In addition, the “r1 with HSA” value in data set [3] (setting [7]) came out at 3.5 mM⁻¹ s⁻¹.
On to `O=P([O-])(O)CN1CCN(CP(=O)([O-])O)CCN(CP(=O)([O-])O)CC1.[Fe+3]` [Fe(NOTP)], for which, in data set [4], the “Log P octanol/water” value was −2.02±0.30. Further, the “effective magnetic moment μeff” value in data set [5] was 5.85±0.14 BM. Besides, the r1 in data set [3] (FIG. 11, 4.7 Tesla) was 0.66 ± 0.01 mM⁻¹ s⁻¹; in data set [3] (setting [6]) it was 0.66 mM⁻¹ s⁻¹. For the same compound, the “r1 with HSA” value in data set [3] (FIG. 11, with HSA, 4.7 Tesla) was 1.04 ± 0.06 mM⁻¹ s⁻¹; in data set [3] (setting [7]), 1.0 mM⁻¹ s⁻¹.
Turning to `CNC[C@H](O)[C@@H](O)[C@H](O)[C@H](O)CO.CNC[C@H](O)[C@@H](O)[C@H](O)[C@H](O)CO.O=C([O-])CN(CCN(CC(=O)[O-])CC(=O)O)CCN(CC(=O)[O-])CC(=O)O.[Gd+3]` [Gd(DTPA), gadopentetate dimeglumine, reference compound], in data set [3] (setting [8]), the “r1 4.7 T” value was 3.1 ± 0.31 mM⁻¹ s⁻¹ and the “r2 4.7 T” value worked out at 3.9 ± 0.39 mM⁻¹ s⁻¹. In data set [3] (in HSA, 4.7 T, pH 7.2, 37° C.), the “r1 in HSA 4.7 T” value came to 3.2 ± 0.32 mM⁻¹ s⁻¹ and the “r2 in HSA 4.7 T” value amounted to 4.0 ± 0.40 mM⁻¹ s⁻¹.
